# Measurements published in ChEMBL document CHEMBL1201862, “PubChem BioAssay data set” (2004).
# Activity calls are given as the source filed them.
# What was measured:
# Protein RecA = molecular target: T1, Protein RecA (Mycobacterium tuberculosis, UniProt P9WHJ3); assay: Fluorescence Cell-Free Homogeneous Dose Retest to Identify Inhibitors of RecA-Intein Splicing Activity. [Related pubchem assays (depositor defined):AID2097, AID2223, AID489010, AID492950]; format: functional
# T1 sequence (P9WHJ3 whole entry): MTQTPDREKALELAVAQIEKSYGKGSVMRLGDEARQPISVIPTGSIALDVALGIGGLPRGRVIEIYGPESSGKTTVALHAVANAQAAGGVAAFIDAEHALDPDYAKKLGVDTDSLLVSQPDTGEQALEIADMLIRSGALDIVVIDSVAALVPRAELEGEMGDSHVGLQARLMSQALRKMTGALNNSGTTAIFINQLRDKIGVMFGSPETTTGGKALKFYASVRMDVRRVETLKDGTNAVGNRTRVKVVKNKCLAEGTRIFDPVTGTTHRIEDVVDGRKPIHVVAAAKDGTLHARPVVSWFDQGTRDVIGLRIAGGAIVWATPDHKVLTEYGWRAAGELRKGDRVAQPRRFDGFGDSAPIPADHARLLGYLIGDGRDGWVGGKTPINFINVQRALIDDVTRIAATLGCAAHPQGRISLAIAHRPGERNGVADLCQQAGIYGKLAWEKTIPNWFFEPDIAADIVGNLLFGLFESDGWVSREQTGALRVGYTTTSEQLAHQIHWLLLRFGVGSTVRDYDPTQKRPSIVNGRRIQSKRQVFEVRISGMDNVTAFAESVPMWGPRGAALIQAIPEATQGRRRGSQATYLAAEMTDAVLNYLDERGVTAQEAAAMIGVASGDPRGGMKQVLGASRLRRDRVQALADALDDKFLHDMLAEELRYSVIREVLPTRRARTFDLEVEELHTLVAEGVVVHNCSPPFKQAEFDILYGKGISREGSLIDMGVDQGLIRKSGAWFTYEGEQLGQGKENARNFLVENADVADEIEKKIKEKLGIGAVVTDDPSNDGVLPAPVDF
# Aminopeptidase N = molecular target: T2, Aminopeptidase N (Plasmodium falciparum FcB1/Columbia, UniProt O96935); assay: P. falciparum M1AAP inhibitors, biochemical, fluorogenic H-Leu-NHMec substrate, 1536-well (AID 1445); parameters: species or system Plasmodium falciparum 3D7, 3D7
# T2 sequence (O96935 whole entry): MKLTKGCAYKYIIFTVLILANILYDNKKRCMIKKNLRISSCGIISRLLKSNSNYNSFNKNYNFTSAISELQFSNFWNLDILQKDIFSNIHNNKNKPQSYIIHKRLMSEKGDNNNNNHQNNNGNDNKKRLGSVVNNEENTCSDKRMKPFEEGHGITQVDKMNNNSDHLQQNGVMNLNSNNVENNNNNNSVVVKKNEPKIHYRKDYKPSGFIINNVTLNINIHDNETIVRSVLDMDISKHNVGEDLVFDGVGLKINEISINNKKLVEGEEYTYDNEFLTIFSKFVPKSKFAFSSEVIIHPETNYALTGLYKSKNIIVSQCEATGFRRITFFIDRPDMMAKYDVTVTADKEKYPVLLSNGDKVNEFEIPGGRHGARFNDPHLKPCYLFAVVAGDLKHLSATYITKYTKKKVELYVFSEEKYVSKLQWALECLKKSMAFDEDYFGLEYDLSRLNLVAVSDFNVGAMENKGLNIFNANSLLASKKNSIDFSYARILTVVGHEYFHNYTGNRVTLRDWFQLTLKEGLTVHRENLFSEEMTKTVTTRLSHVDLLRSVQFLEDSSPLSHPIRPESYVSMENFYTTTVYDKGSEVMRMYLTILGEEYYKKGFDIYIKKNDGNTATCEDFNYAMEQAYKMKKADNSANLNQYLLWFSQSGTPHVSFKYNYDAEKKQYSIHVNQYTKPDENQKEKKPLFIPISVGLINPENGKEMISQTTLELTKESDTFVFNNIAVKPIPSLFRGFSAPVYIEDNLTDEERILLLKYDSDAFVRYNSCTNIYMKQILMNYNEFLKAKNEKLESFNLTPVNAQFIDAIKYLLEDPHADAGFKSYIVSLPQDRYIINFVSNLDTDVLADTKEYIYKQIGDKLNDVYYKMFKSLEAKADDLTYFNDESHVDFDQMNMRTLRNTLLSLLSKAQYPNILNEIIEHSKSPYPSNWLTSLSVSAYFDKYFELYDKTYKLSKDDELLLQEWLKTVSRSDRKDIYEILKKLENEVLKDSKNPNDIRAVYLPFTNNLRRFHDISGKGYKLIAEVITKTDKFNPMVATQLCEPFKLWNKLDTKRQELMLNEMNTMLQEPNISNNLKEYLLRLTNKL
# [1] = molecular target: Bifunctional protein GlmU (Mycobacterium tuberculosis, UniProt P9WMN3); assay: Inhibitors of Mycobacterial Glucosamine-1-phosphate acetyl transferase (GlmU). Secondary screen.; parameters: species or system Mycobacterium tuberculosis H37Rv
# [2] = inhibitors of Bluetongue virus cytopathic effect, confirmation, arbovirus, BSR cells (AID 1250); format: functional;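 further: protection from viral cytopathic effect measured as cell viability by ATP luminescence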
# [3] = HIV-1 Env-mediated cell fusion inhibitors, dose response, CCR5-tropic Env (AID 2279); format: functional
# [4] = molecular target: T3, Replicative DNA helicase DnaB (Mycobacterium tuberculosis, UniProt P9WMR3); assay: DnaB intein splicing inhibitors, dose response, biochemical, cell-free fluorescence (AID 449749); format: functional
# T3 sequence (P9WMR3 whole entry): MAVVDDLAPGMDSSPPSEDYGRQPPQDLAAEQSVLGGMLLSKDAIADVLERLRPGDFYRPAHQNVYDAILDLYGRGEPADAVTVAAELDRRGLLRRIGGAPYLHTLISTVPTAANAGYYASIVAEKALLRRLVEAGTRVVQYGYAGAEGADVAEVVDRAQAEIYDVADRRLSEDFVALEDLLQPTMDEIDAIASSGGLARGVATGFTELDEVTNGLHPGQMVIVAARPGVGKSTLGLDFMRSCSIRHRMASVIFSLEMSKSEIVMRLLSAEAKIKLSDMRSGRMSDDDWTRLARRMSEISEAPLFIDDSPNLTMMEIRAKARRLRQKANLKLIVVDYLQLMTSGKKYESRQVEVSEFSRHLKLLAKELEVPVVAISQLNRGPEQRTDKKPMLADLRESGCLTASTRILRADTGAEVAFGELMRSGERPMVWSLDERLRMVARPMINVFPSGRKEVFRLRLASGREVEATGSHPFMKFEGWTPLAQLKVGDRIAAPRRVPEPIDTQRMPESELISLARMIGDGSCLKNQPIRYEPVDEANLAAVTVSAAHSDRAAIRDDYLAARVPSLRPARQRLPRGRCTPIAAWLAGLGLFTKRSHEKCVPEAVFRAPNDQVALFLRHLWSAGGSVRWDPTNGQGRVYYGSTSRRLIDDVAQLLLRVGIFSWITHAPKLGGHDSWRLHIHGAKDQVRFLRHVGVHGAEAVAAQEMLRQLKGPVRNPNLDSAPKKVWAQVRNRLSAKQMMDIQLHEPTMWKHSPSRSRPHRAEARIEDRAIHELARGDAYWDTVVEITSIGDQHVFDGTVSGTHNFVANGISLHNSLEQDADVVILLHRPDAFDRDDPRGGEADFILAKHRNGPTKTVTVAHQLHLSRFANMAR
# Estrogen receptor = molecular target: T4, Estrogen receptor (Homo sapiens, UniProt P03372); assay: ERα–SRC-3 coactivator interaction inhibitors, confirmation, orthogonal assay, biochemical, ELISA, streptavidin-HRP readout (AID 1079)
# T4 sequence (P03372 whole entry): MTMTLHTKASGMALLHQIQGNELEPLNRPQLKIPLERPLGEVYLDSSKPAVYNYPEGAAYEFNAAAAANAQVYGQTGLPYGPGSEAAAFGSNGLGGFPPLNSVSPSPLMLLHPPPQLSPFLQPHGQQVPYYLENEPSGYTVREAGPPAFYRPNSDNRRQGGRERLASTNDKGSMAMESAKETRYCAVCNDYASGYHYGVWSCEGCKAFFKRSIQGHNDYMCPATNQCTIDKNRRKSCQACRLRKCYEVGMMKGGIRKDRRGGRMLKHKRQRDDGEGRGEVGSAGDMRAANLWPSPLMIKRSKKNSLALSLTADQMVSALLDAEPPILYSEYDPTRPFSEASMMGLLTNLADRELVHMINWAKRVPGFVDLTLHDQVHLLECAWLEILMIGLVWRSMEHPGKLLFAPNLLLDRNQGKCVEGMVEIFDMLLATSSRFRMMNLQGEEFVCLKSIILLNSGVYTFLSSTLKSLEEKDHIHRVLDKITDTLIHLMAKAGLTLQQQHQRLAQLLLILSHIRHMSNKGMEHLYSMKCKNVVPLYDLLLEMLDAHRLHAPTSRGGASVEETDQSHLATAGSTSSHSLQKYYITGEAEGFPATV
# Insulin-degrading enzyme = molecular target: T5, Insulin-degrading enzyme (Homo sapiens, UniProt P14735); assay: Dose Response: Fluorescence polarization-based cell-based high throughput dose response assay for inhibitors of insulin-degrading enzyme (IDE). [Related pubchem assays: 434962 (Primary screen (IDE inhibitors in singlicate)), 449730 (Counterscreen (Cytotoxicity in triplicate)), 435028 (Confirmation (IDE inhibitors in triplicate)), 434984 (Summary …; format: functional
# T5 sequence (P14735 whole entry): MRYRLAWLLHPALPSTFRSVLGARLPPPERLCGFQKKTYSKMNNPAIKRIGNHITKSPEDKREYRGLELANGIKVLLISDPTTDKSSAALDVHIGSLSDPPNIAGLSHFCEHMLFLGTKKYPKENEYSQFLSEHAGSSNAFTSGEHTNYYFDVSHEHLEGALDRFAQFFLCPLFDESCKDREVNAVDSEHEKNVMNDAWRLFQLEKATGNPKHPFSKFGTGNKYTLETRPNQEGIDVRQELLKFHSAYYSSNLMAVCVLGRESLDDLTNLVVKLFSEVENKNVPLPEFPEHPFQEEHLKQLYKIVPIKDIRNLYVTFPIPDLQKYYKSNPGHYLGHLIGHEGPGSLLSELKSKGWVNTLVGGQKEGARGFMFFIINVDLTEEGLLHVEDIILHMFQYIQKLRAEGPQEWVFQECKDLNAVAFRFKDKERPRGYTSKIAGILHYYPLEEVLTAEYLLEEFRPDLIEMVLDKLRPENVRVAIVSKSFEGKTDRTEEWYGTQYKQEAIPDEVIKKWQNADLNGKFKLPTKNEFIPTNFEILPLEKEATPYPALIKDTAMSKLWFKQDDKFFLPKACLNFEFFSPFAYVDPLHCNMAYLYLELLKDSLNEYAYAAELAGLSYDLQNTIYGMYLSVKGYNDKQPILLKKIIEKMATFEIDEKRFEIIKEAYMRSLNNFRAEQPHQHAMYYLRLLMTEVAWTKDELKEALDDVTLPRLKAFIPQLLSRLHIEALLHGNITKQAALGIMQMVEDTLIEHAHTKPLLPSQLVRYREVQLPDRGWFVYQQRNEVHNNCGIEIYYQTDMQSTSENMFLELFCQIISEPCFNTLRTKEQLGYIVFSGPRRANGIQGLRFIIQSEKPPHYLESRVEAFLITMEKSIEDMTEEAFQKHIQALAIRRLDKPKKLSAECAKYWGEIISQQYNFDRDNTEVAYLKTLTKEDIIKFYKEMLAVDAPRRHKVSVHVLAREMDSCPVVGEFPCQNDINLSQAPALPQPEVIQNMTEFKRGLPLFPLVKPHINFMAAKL
# [5] = molecular target: T6, Corticotropin-releasing factor receptor 2/Corticotropin-releasing factor-binding protein (Homo sapiens, UniProt P24387+Q13324); assay: activators of CRF receptor 2 with binding protein – uHTS hits, confirmation (AID 602473); format: functional; conditions: read-out: EC50_Mean
# T6 sequence (Q13324 whole entry): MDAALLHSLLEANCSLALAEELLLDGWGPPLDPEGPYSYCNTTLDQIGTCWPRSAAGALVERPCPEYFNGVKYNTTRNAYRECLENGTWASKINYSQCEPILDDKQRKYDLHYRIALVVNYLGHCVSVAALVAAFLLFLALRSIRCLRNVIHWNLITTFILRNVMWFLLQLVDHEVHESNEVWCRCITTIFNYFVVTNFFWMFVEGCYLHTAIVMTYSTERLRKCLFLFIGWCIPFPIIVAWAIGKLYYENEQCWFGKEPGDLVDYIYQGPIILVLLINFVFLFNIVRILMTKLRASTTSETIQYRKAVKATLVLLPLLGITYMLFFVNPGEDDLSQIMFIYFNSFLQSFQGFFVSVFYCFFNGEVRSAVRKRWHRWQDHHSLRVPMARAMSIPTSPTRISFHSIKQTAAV
# T6 sequence (P24387 whole entry): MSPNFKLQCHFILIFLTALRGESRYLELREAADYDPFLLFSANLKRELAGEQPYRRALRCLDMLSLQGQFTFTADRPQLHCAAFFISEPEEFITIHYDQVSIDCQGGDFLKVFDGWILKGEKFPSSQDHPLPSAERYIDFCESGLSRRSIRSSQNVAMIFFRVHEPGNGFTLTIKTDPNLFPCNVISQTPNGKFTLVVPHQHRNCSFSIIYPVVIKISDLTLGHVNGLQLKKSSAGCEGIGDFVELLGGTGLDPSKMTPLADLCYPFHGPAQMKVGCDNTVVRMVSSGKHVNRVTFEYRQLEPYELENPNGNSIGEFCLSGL
# [6] = Counterscreen for IDE inhibitors: Luminescence-based cell-based high throughput dose response assay to identify compounds that are cytotoxic to HEK cells. [Related pubchem assays: 434962 (Primary screen (IDE inhibitors in singlicate)), 449730 (Counterscreen (Cytotoxicity in triplicate)), 435028 (Confirmation (IDE inhibitors in triplicate)) …; format: functional; conditions: HEK293
# Sequence of Bifunctional protein GlmU (P9WMN3 whole entry): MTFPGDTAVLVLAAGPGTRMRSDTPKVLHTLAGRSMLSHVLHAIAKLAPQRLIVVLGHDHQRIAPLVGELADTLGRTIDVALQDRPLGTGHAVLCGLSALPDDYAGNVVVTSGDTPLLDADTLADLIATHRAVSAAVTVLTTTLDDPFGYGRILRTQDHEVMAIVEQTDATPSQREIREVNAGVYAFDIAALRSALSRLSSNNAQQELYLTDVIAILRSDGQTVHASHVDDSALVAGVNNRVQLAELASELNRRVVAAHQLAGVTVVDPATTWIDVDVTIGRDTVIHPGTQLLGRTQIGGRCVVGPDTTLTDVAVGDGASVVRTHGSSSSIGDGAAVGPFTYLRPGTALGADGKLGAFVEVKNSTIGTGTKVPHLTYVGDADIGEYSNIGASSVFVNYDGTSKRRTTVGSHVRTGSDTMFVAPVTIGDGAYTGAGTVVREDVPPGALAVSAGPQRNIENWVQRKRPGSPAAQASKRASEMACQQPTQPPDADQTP
compound,measurement,setting,value
N#C/C(=C\c1ccc(O)c([N+](=O)[O-])c1)c1nc2ccccc2s1,EC50,Protein RecA,4.58 µM (active)
same,IC50,Aminopeptidase N,33.9 µM (active)
same,IC50,[1],71.8 µM (active)
same,IC50,[2],> 100 µM (active)
same,IC50,[3],3.41 µM (active)
same,AC50,[4],7.01 µM (active)
N#Cc1cccc(N2CCN(C(=O)CCCCCn3c(=S)[nH]c4ccccc4c3=O)CC2)c1,IC50,Estrogen receptor,90 nM (not active)
CCN(CC)c1ccc(/C=C2\CCC(/C=N/NC(=O)c3ccc(=O)n(C)c3)=C2N2CCOCC2)cc1,IC50,Insulin-degrading enzyme,12.5 µM (not active)
same,EC50,[5],5.19 µM (active)
same,IC50,[6],16.6 µM (not active)
